# Key:
# MCF-10A cells = assay: TNFα stimulation of MCF-10A cells, immunoprecipitation and immunoblotting of fractions; assay type: cell-based, Human; conditions: 20 ng/ml TNFα
# Description: FIG. 10B is a pair of photographs of immunoblots. Lysates from MCF-10A cells left untreated (0) or stimulated with 20 ng/ml TNFα for the indicated times (0.5, or 2 hours) were immunoprecipitated with anti-IKKβ (left) or anti-IKKγ (right). The immunoprecipitates were immunoblotted with antibodies specific to MUC1-C, and either IKKβ (left panel) or IKKγ (right panel) as loading controls. The molecular weights of proteins (as indicated on the left of the photographs) are expressed as kilodaltons (kDa).
# FIG. 10C is a series of photographs of immunoblots. MCF-10A cells were left untreated (0) or stimulated with 20 ng/ml TNFα for the indicated times. Cytosolic and nuclear fractions of the cells were prepared and subjected to immunoblotting with the indicated antibodies. The molecular weights of proteins (as indicated on the left of the photographs) are expressed as kilodaltons (kDa).
# (§1) Cell culture. Human HCT116 colon carcinoma cells, HeLa cervical carcinoma cells and MCF-7 breast cancer cells were grown in Dulbecco's modified Eagle's medium with 10% heat-inactivated fetal bovine serum, 100 units/ml penicillin, […] streptomycin and 2 mM L-glutamine. Human ZR-75-1 breast cancer cells were grown in RPMI1640 medium containing 10% heat-inactivated fetal bovine serum, antibiotics and L-glutamine. Human MCF-10A breast epithelial cells were grown in mammary epithelial cell growth media (MEGM; Cambrex Corp.).
# Subcellular fractionation. Nuclear and cytosolic fractions were prepared as described in Kharbanda et al. (1996) Cancer Res. 56:3617-3621.
# (§2) Immunoprecipitation and immunoblotting. Lysates from subconfluent cells were prepared as described in Ren et al. (2004) Cancer Cell 5:163-175. Soluble proteins were incubated with anti-IKKβ (Cell Signaling Technology) or anti-IKKγ (Santa Cruz Biotechnology) for 2 h at 4° C. […] The immune complexes were detected with horseradish peroxidase-conjugated secondary (anti-IgG) antibodies (Amersham Biosciences) and enhanced chemiluminescence (ECL; Amersham Biosciences). […]
# MCF-7 cells = assay: TNFα treatment of MCF-7 cells, MUC1-C binding to IKKs; assay type: cell-based, Human
# Description: as §1, §2
substance,measurement,setting,value
TNFα,phosphorylation and degradation of IκBα,MCF-10A cells; MCF-10A cytosolic fractions,associated with phosphorylation and degradation of IκBα
same,targeting of NF-κB p65 to the nucleus,MCF-10A cells; MCF-10A nuclear fractions,targeting of NF-κB p65 to the nucleus
same,binding of MUC1-C to IKKβ and IKKγ,MCF-10A cells; MCF-10A,increased binding
same,binding of MUC1-C to IKKβ or IKKγ,MCF-7 cells,no apparent effect
